The subject of one series is Candida krusei K. 11655. Kind of series: In vitro antifungal activity, microbroth dilution MIC. Format: cell-based. The note with it: Pichia kudriavzevii, 4 to 48 hours. Summed up: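 Broth microdilution adapted from NCCLS M27, in RPMI-1640 with 0.165 M MOPS, pH 7.0. Yeast or mould inoculum at 2×10^3 CFU/ml was mixed 1:1 with DMSO-derived compound solutions (200 to 0.10 μg/ml before mixing) and incubated at 35 °C for 4 to 48 h. MIC was the concentration showing no growth.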
Background: Broth dilution looks for growth in wells or tubes with falling amounts of substance.

Another series relates to mouse. Particulars: oral; cited from earlier work.
The mark [1] stands for this setting: C. krusei K. 11655, RPMI-1640, 35° C., read-out: Minimal inhibitory concentration (MIC).
Where [2] appears, read: K.11655, RPMI-1640, 35° C., no growth observed, read-out: Minimal inhibitory concentration(MIC), C. krusei K. 11655.

Among the data in patent US6376497B1, “Antifungal azole derivatives having a fluorinated vinyl group and process for preparing same” (Korea Research Institute of Chemical Technology, priority 1999, dated 2002) are MIC and LD50 values, retold here.

Values after ≈ are worked out from the molar mass of the structure shown. Read-outs that look alike come from different tables or passages of the source.

With `OC(Cn1cncn1)(Cn1cncn1)c1ccc(F)cc1F` [fluconazole, reference compound], the MIC in the series on Candida krusei K. 11655 (setting [1]) and in the series on Candida krusei K. 11655 (setting [2]) was 25 µg/mL (≈ 81.6 µM) in each case.
For the compound `CCC(C)n1ncn(-c2ccc(N3CCN(c4ccc(OCC5COC(Cn6cncn6)(c6ccc(Cl)cc6Cl)O5)cc4)CC3)cc2)c1=O` (centres unmarked) [itraconazole, reference compound], in the series with mouse, the 50% lethal dose (LD50) is on record as 320 mg/kg. Also, the MIC in the series with Candida krusei K. 11655 (setting [1]) and with Candida krusei K. 11655 (setting [2]) was 0.39 µg/mL (≈ 0.553 µM) each time.

A word on the LD50: it is the dose expected to kill half of the subjects tested.
